Results as given in PMC3738524, “Bioenergetic and Antiapoptotic Properties of Mitochondria from Cultured Human Prostate Cancer Cell Lines PC-3, DU145 and LNCaP” (PLoS ONE, 2013).
Like-named read-outs stand apart in the source and are kept apart here.

Molecular target: T1, Complex I (NADH dehydrogenase) (Homo sapiens, UniProt P49821)
T1 construct: gene NDUFV1
Conditions: optimal decylubiquinone as acceptor, 30 °C, '+' printed for ±

T1 sequence (P19404 33-249): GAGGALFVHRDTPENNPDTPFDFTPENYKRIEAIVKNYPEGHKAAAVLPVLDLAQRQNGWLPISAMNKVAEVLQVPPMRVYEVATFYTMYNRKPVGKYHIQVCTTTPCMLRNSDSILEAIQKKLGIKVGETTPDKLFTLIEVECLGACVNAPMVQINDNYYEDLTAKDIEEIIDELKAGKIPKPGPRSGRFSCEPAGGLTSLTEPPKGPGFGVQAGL
T1 sequence (P28331 24-727, further chain): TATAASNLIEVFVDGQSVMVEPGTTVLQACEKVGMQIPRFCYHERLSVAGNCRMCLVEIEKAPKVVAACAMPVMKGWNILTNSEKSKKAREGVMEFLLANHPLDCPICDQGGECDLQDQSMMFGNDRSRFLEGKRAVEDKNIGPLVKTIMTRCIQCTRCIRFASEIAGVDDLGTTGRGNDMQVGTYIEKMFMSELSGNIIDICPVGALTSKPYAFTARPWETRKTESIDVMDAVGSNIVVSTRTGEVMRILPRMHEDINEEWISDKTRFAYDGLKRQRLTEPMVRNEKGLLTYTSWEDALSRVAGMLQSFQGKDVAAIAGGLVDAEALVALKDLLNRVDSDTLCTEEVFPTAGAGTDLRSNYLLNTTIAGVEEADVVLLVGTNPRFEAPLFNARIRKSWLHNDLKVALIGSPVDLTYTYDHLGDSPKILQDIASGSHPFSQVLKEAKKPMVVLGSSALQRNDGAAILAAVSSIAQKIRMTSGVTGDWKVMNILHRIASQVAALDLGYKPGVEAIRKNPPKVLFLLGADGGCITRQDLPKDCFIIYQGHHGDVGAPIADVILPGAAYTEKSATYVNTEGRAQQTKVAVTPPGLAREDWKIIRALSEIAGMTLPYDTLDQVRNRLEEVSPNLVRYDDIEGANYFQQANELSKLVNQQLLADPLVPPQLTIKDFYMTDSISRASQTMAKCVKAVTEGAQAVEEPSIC
T1 sequence (P49821 21-464): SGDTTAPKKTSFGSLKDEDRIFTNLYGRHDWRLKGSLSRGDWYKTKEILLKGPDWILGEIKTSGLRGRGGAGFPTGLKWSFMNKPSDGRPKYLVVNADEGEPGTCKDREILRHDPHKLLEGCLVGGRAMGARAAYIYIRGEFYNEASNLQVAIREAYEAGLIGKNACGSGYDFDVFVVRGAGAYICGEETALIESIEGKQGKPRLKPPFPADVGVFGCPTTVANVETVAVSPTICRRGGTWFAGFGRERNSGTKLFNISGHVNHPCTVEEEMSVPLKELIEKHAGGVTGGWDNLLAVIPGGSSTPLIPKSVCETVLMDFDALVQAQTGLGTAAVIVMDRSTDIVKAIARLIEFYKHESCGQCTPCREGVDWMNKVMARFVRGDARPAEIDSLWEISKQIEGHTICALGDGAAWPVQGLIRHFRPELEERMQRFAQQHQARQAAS

## NC(=O)C1=CN([C@@H]2O[C@H](COP(=O)(O)OP(=O)(O)OC[C@H]3O[C@@H](n4cnc5c(N)ncnc54)[C@H](O)[C@@H]3O)[C@@H](O)[C@H]2O)C=CC1 [NADH]
EBV-transformed normal lymphoblastoid HLB cells
  KM^NADH: 1.8+0.1 µM
Fibrosarcoma HT1080C cells
  KM^NADH: 5+2 µM
Normal prostate epithelial PrEC cells
  KM^NADH: 4+0.5 µM
Prostate cancer cells PC-3, DU145 and LNCaP (one common value printed)
  KM^NADH: 20+2.5 µM
